In patent US20100035848A1, “THERAPY FOR DISORDERS OF THE PROXIMAL DIGESTIVE TRACT” (priority 2008, published 2010):
“And” between values parts separate entries of the source, which are not always exact repeats. Equal entries are not always repeated.

Legend:
ACE2 [1] = molecular target: T1, ACE2 (Rattus norvegicus, UniProt Q5EGZ1); assay: Stomach tissue homogenates spiked with excess GL1001, ACE2 fluorescence assay; type: biochemical
T1 construct: from tissue; host or cells: rat stomach (excluding forestomach) homogenate
Protocol: (§1) Three hours after diclofenac treatment, all animals were sacrificed and stomachs were removed and imaged to determine the severity of gastric damage. Additionally, stomach tissue samples were taken to assess disease activity and pharmacodynamic effects. Gastric damage scores were determined from photographic images (Ma & Wallace (2003) Am. J. Physiol. Gastrointest. Liver Physiol. 279; 341-346). Removed stomachs were opened along the greater curvature, pinned out on a wax block, and photographed along a 25 mm ruler reference with a digital 35 mm camera. The lesion area was then determined using enlarged images and computer software (www.scioncorp.co/pages/scion_image_windows.htm) that allows superimposed drawing of the perimeter of a wound and calculation of the area based on the ruler reference. Stomach samples (excluding forestomach) were used for measurements of PGE2 concentration, MPO activity and ACE2 activity. […] Concentration of PGE2 from stomach tissue samples was performed as described by Souza et al. (2003), supra, and quantification was obtained by LC-MS. […] Last, the extent of inhibition of ACE2 activity was determined to establish whether GL1001 was effective in inhibiting its ACE2 target in stomach tissues. […]

gastric PGE2 synthesis = assay: Acute indomethacin-induced gastric toxicity in rats: gastric PGE2 synthesis; type: in vivo, rat; settings: indomethacin 20 mg/kg p.o.
Protocol: A study was conducted to determine whether GL1001 would inhibit acute NSAID (indomethacin)-induced gastric toxicity in a rat model (Wallace et al. (1998) Gastroenterol. 115:101-109). Several modes of treatment with GL1001 or vehicle were employed, which included administration via drinking water, oral administration and subcutaneous administration as shown in Table 4. Irrespective of the route of drug or vehicle administration, male Wistar rats were deprived of food for 16 h prior to oral administration of 20 mg/kg indomethacin (Sigma) or vehicle (5% w/v sodium bicarbonate; 1 ml/kg). Three hours later the rats were sacrificed and the severity of gastric damage was blindly scored. This involved measurement of the lengths (in mm) of all hemorrhagic erosions and summing these to give a “gastric damage score” for each stomach. Samples of the stomach were taken for measurement of prostaglandin E2 (PGE2) synthesis as described by Wallace et al. (1998), supra, and myeloperoxidase activity as described by Souza et al. (2003) Am. J. Physiol. 285:[…]-61. Myeloperoxidase is an enzyme found in all cells of mycloid origin, but particularly enriched within neutrophils. It is therefore used as a biochemical marker of granulocyte infiltration into tissue. Each group consisted of 6 rats. As a negative control, one group received vehicle pretreatments (in the drinking water and by oral gavage) and then received vehicle instead of indomethacin. […] [table] In the experiments where GL1001 (or vehicle) was added to drinking water, the rats were provided with the modified drinking water for 2 days prior to administration of indomethacin (or vehicle). This included the period when the rats were deprived of food. GL1001 was prepared in 0.1M citrate buffer before being added to the drinking water. Based on average water consumption by rats, this was aimed at providing a daily dose of GL1100 of 1200 mg/kg (water consumption was monitored for several days prior to initiation of the study). Oral or subcutaneous administration of GL1001 (or vehicle) was performed 30 minutes prior to administration of indomethacin. Data are expressed as mean±SEM. When two groups of data were compared, a Student's t-test was used. When more than two groups of data were compared, a one-way analysis of variance followed by the Newman-Keuls test was used. An associated probability of less than 5% was considered statistically significant.

ACE2 [2] = molecular target: T1, ACE2; assay: Acute diclofenac-induced gastric toxicity in rats: ACE2 activity in stomach tissue; type: in vivo; settings: Group C: GL1001 oral before diclofenac 50 mg/kg; vehicle-diclofenac Group B 880 ± 39; p<0.0001
Protocol: Male Wistar rats were deprived of food but not water for 16 hours prior to oral administration of GL1001 90 mg/kg, incubated for 30 minutes and then given oral diclofenac 50 mg/kg. Each group consisted of 6 rats. As a negative control, one group received vehicle pretreatment, and then received vehicle instead of diclofenac. A positive control group received PGE2 100 μg/kg orally, 30 minutes prior to administration of diclofenac. All treatments were administered by oral gavage.
as §1, with “tissues. The ACE2 activity assay is similar to the method of Vickers et al. (2002) J. Biol. Chem. 277:14838-14843, wherein purified recombinant ACE2 (100 pM) and a quenched fluorescent substrate (100-150 μM APK (7-methoxycoumarin-4-yl)acetyl-Ala-Pro-Lys (2,4-dinitrophenyl)) are used in end-point fluorescence reactions (excitation 320 nm, emission 405 nm).” for “tissues.”
Data are expressed as means with standard errors. […]

T1 sequence (Q5EGZ1 18-805): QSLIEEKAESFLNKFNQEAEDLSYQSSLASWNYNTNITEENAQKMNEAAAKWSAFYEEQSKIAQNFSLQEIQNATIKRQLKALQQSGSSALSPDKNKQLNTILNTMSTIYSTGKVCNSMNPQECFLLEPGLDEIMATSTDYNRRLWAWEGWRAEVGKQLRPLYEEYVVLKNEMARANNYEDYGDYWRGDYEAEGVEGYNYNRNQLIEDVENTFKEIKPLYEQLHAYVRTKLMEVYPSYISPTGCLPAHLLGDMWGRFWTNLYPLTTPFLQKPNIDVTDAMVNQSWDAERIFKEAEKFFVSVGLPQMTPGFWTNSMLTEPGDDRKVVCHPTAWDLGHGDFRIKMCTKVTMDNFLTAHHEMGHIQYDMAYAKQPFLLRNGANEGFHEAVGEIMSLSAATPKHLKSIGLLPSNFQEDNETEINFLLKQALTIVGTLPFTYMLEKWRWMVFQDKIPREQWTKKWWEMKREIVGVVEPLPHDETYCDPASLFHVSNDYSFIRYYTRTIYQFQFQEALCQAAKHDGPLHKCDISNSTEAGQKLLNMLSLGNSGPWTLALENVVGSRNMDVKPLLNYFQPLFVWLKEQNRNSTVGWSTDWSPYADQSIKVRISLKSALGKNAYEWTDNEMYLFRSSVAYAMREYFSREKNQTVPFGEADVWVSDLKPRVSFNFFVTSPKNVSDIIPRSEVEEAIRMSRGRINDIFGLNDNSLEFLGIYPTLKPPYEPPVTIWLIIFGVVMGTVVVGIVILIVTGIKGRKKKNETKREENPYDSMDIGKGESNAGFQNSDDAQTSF

further inhibition of ACE2 on spiking (ACE2 [1]; tissue samples of Group C (dosed in vivo with GL1001) spiked with excess GL1001): no further inhibition | decrease in the fluorescence signal (ACE2 specific activity) (ACE2 [1]; tissue samples of Groups A and B spiked with vast excess of GL1001 (>IC90)): 40-50%
Compound: CC(C)C[C@H](N[C@@H](Cc1cncn1Cc1cc(Cl)cc(Cl)c1)C(=O)O)C(=O)O [GL1001, (S,S)-2-[1-carboxy-2-[3-(3,5-dichlorobenzyl)-3H-imidazol-4-yl]-ethylamino]-4-methylpentanoic acid]
Gastric PGE2 synthesis (gastric PGE2 synthesis; Group A: GL1001 in drinking water, vehicle Group B 3.83 ± 0.98): 5.31 ± 1.54 ng/mg | Gastric PGE2 synthesis (gastric PGE2 synthesis; Group C: GL1001 p.o. and in drinking water, vehicle Group D 3.07 ± 0.55): 2.37 ± 0.51 ng/mg | Gastric PGE2 synthesis (gastric PGE2 synthesis; Group F: GL1001 s.c. and in drinking water, vehicle Group G 3.60 ± 0.32): 3.57 ± 0.59 ng/mg | Gastric PGE2 synthesis (gastric PGE2 synthesis; Group H: GL1001 p.o., vehicle Group I 6.08 ± 1.00): 4.44 ± 0.40 ng/mg | Gastric ACE2 activity (ACE2 [2]): 436 pmol/mg and 436 ± 20 pmol/mg
